Test results published in patent publication US20230036339A1, “BIOACTIVE IMPLANTS FOR DRUG DELIVERY” (The Queen's University of Belfast, priority 2019, published 2023).
Where “and” joins values, the source holds several entries; their conditions need not be identical. Identical values can stand only once. Marks after values point to notes of the source that are not given here.

Legend:
[1] = Assessment of drug loading capacity of EVA
[2] = Thermogravimetric analysis (TGA), thermal stability; assay type: physicochemical; settings: 10° C. min-1, reported at 5% weight loss
Experimental: TGA was utilised to determine thermal stability. Initially the starting materials (LIDO, MA, SA and GMS) were analysed to deduce the degradation temperature. The excipients were exposed to a heating ramp from room temperature (circa 20° C.) to 500° C., at 10° C. min-1.
LIDO and the relevant lipids were weighed and heated at 80° C. until molten. The samples were given 24 hours to cool/solidify before they were ground using a mortar and pestle for 2 min. The resultant systems were heated at 10° C. min-1 from room temperature to 350° C. All TGA experiments were conducted in triplicates, using Perkin-Elmer Aluminum Non-Hermetic DSC pans. Nitrogen (60 mL min-1) was used as the purge gas. The degradation temperature was reported at 5% weight loss. Analysis was performed using TA Universal analysis software.
Consequently, TGA is an essential technique used to inform the suitability of these materials and processing conditions of HME. The thermal degradation temperature was reported at 5% weight loss.

[3] = In vivo sheep study, pharmacokinetics of lidocaine and myristic acid; settings: FIG. 25
[4] = cited from earlier work
[5] = Lidocaine and myristic acid remaining post-implantation; assay type: in vivo; settings: individual sheep
Experimental: The components of the outer coating were dissolved by sonication in dicholoromethane and the volume was then made up to 50 ml. Two ml of this solution was dried for 1 h at 50° C. and reconstituted in 100 ml methanol. The methanolic solutions were appropriately diluted in the mobile phase for assay by LCMS-MS.

CCN(CC)CC(=O)Nc1c(C)cccc1C [Lidocaine, 2-(diethyl-amino)-N-(2,6-dimethylpheny)-acetamide, reference compound]
Lidocaine concentration at which it crystalises out ([1]; in EVA 33%): > 10% | Lidocaine concentration over which it crystallises out ([1]; solvent cast EVA film or EVA polymer implant): 9-10 % w/w | Mean Degradation Temperature ± SD ([2]; listed as LIDO): 164.40 ± 1.30 °C | Mean Degradation Temperature ± SD ([2]; listed as lidocaine): 164.40 °C

CCCCCCCCCCCCCC(=O)O [Myristic Acid]
Concentration in peritoneal fluid compared to plasma [3]: higher concentrations again observed in peritoneal fluid | LogP [4]: 5.37 | Myristic acid % Remaining ([5]; in co-extrudate after 3 days implantation, mean ± SD n=3): 10.04 ± 1.82% and 16.91 ± 6.77% and 11.21 ± 0.98% | Myristic acid % Remaining ([5]; in co-extrudate after 7 days implantation, listed as Myristic acid): <4.00* % | Myristic acid % Remaining ([5]; in co-extrudate after 7 days implantation, listed as myristic acid): too low to quantify | Mean Degradation Temperature ± SD ([2]; listed as MA): 177.55 °C and 177.55 ± 0.82 °C

CCCCCCCCCCCCCCCCCC(=O)O [Stearic Acid]
LogP [4]: 7.15 | Mean Degradation Temperature ± SD ([2]; listed as SA): 201.75 °C and 201.75 ± 4.12 °C

CCCCCCCCCCCCCCCCCC(=O)OCC(O)CO (centres unmarked) [Glycerol Monostearate]
LogP [4]: 5.97 | Mean Degradation Temperature ± SD ([2]; listed as GMS): 197.34 °C and 197.34 ± 8.23 °C
